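Method: 48-hour compound exposure of cells in 96-well plates, five concentrations, linear interpolation of endpoints. The concentration for 50% growth inhibition is given as GI50. Definition used: TGI = concentration required for complete inhibition of growth.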
Assays:
Assay in all cases: inhibition of tumour cell growth, NCI panel, 48 h
M14 melanoma = system: M14 melanoma
IGROV1 ovarian = system: IGROV1 ovarian
RPMI-8226 leukemia = system: RPMI-8226 leukemia
786-0 renal = system: 786-0 renal
HL-60(TB) leukemia = system: HL-60(TB) leukemia
HCT-116 colon = system: HCT-116 colon
UO-31 renal = system: UO-31 renal
LOX IMVI melanoma = system: LOX IMVI melanoma
OVCAR-8 ovarian = system: OVCAR-8 ovarian
BT-549 breast = system: BT-549 breast
RXF 393 renal = system: RXF 393 renal
UACC-257 melanoma = system: UACC-257 melanoma
SF-295 CNS = system: SF-295 CNS
U251 CNS = system: U251 CNS
OVCAR-3 ovarian = system: OVCAR-3 ovarian
SW-620 colon = system: SW-620 colon
K-562 leukemia = system: K-562 leukemia
A498 renal = system: A498 renal
CAKI-1 renal = system: CAKI-1 renal
SR leukemia = system: SR leukemia
MDA-MB-468 breast = system: MDA-MB-468 breast
SN12C renal = system: SN12C renal
PC-3 prostate = system: PC-3 prostate
T-47D breast = system: T-47D breast
MALME-3M melanoma = system: MALME-3M melanoma
HT29 colon = system: HT29 colon
HS 578T breast = system: HS 578T breast
MCF7 breast = system: MCF7 breast
TK-10 renal = system: TK-10 renal
SNB-75 CNS = system: SNB-75 CNS
SK-OV-3 ovarian = system: SK-OV-3 ovarian
SK-MEL-5 melanoma = system: SK-MEL-5 melanoma
NCI-H226 lung = system: NCI-H226 lung
A549 NSCLC = system: A549 NSCLC
HCC-2998 colon = system: HCC-2998 colon
OVCAR-5 ovarian = system: OVCAR-5 ovarian
SNB-19 CNS = system: SNB-19 CNS
SF-268 CNS = system: SF-268 CNS
HOP-62 NSCLC = system: HOP-62 NSCLC
MDA-MB-231 breast = system: MDA-MB-231 breast
KM12 colon = system: KM12 colon
OVCAR-4 ovarian = system: OVCAR-4 ovarian
HCT-15 colon = system: HCT-15 colon
HOP-92 NSCLC = system: HOP-92 NSCLC
SK-MEL-28 melanoma = system: SK-MEL-28 melanoma
MOLT-4 leukemia = system: MOLT-4 leukemia
CCRF-CEM leukemia = system: CCRF-CEM leukemia
NCI-H460 lung = system: NCI-H460 lung
NCI-H522 lung = system: NCI-H522 lung
ACHN renal = system: ACHN renal
DU-145 prostate = system: DU-145 prostate
MDA-MB-435 = system: MDA-MB-435
UACC-62 melanoma = system: UACC-62 melanoma
COLO 205 colon = system: COLO 205 colon
NCI-H23 lung = system: NCI-H23 lung
SF-539 CNS = system: SF-539 CNS
EKVX NSCLC = system: EKVX NSCLC

`CCN(CC)c1ccnc(CNCCSC(c2ccccc2)(c2ccccc2)c2ccc(OC)cc2)c1` showed a GI50 (M14 melanoma) of 1.85 µM, a TGI (M14 melanoma) of 4.86 µM and a GI50 (IGROV1 ovarian) of 3.82 µM. It also gave a TGI (IGROV1 ovarian) of 15.7 µM, a GI50 (RPMI-8226 leukemia) of 2.3 µM and a TGI (RPMI-8226 leukemia) of 6.43 µM. The GI50 (786-0 renal) was 1.75 µM, the TGI (786-0 renal) was 4.15 µM and the GI50 (HL-60(TB) leukemia) was 1.65 µM. The TGI (HL-60(TB) leukemia) was 4.24 µM, the GI50 (HCT-116 colon) was 2 µM and the TGI (HCT-116 colon) was 8.32 µM. For the same molecule, the GI50 (UO-31 renal) was 3.86 µM, the TGI (UO-31 renal) was 17 µM and the GI50 (LOX IMVI melanoma) was 1.9 µM. For the same molecule, the TGI (LOX IMVI melanoma) was 3.86 µM, the GI50 (OVCAR-8 ovarian) was 2.71 µM and the TGI (OVCAR-8 ovarian) was 11.2 µM. The GI50 (BT-549 breast) was 2.62 µM, the TGI (BT-549 breast) was 6.87 µM and the GI50 (RXF 393 renal) was 2.4 µM. The TGI (RXF 393 renal) was 7.2 µM, the GI50 (UACC-257 melanoma) was 4.04 µM and the TGI (UACC-257 melanoma) was 15.9 µM. For the same molecule, the GI50 (SF-295 CNS) was 2.2 µM, the TGI (SF-295 CNS) was 5.86 µM and the GI50 (U251 CNS) was 2.92 µM. It also gave a TGI (U251 CNS) of 10.7 µM, a GI50 (OVCAR-3 ovarian) of 3.18 µM and a TGI (OVCAR-3 ovarian) of 11 µM. The GI50 (SW-620 colon) was 3.14 µM, the TGI (SW-620 colon) was 13.2 µM and the GI50 (K-562 leukemia) was 2.68 µM. For the same molecule, the TGI (K-562 leukemia) was 8.97 µM, the GI50 (A498 renal) was 13.9 µM and the TGI (A498 renal) was 29.7 µM. For the same molecule, the GI50 (CAKI-1 renal) was 3.63 µM, the TGI (CAKI-1 renal) was 16 µM and the GI50 (SR leukemia) was 2.11 µM. For the same molecule, the TGI (SR leukemia) was 12.4 µM, the GI50 (MDA-MB-468 breast) was 1.66 µM and the TGI (MDA-MB-468 breast) was 4.49 µM. For the same molecule, the GI50 (SN12C renal) was 3.43 µM, the TGI (SN12C renal) was 13.6 µM and the GI50 (PC-3 prostate) was 3.19 µM. For the same molecule, the TGI (PC-3 prostate) was 13.3 µM, the GI50 (T-47D breast) was 2.94 µM and the TGI (T-47D breast) was 12 µM. The GI50 (MALME-3M melanoma) was 2.82 µM, the TGI (MALME-3M melanoma) was 9.49 µM and the GI50 (HT29 colon) was 1.98 µM. The TGI (HT29 colon) was 4.45 µM, the GI50 (HS 578T breast) was 2.26 µM and the TGI (HS 578T breast) was 6.8 µM. It also gave a GI50 (MCF7 breast) of 1.3 µM, a TGI (MCF7 breast) of 5.96 µM and a GI50 (TK-10 renal) of 5.9 µM. The TGI (TK-10 renal) was 19.2 µM, the GI50 (SNB-75 CNS) was 1.65 µM and the TGI (SNB-75 CNS) was 9.09 µM. The GI50 (SK-OV-3 ovarian) was 3.22 µM, the TGI (SK-OV-3 ovarian) was 13.2 µM and the GI50 (SK-MEL-5 melanoma) was 1.68 µM. The TGI (SK-MEL-5 melanoma) was 3.06 µM, the GI50 (NCI-H226 lung) was 3.1 µM and the TGI (NCI-H226 lung) was 13.6 µM. For the same molecule, the GI50 (A549 NSCLC) was 3.74 µM, the TGI (A549 NSCLC) was 17.1 µM and the GI50 (HCC-2998 colon) was 1.79 µM. For the same molecule, the TGI (HCC-2998 colon) was 3.41 µM, the GI50 (OVCAR-5 ovarian) was 2.93 µM and the TGI (OVCAR-5 ovarian) was 10.6 µM. The GI50 (SNB-19 CNS) was 4.3 µM, the TGI (SNB-19 CNS) was 15.6 µM and the GI50 (SF-268 CNS) was 4.35 µM. The TGI (SF-268 CNS) was 19 µM, the GI50 (HOP-62 NSCLC) was 3.09 µM and the TGI (HOP-62 NSCLC) was 12.3 µM. It also gave a GI50 (MDA-MB-231 breast) of 2.32 µM, a TGI (MDA-MB-231 breast) of 5.78 µM and a GI50 (KM12 colon) of 3.41 µM. The TGI (KM12 colon) was 12.4 µM, the GI50 (OVCAR-4 ovarian) was 4.32 µM and the TGI (OVCAR-4 ovarian) was 20.6 µM. It also gave a GI50 (HCT-15 colon) of 2.87 µM, a TGI (HCT-15 colon) of 10.8 µM and a GI50 (HOP-92 NSCLC) of 2.36 µM. The TGI (HOP-92 NSCLC) was 9.84 µM, the GI50 (SK-MEL-28 melanoma) was 4.2 µM and the TGI (SK-MEL-28 melanoma) was 15 µM. For the same molecule, the GI50 (MOLT-4 leukemia) was 2.19 µM, the TGI (MOLT-4 leukemia) was 7.13 µM and the GI50 (CCRF-CEM leukemia) was 3.13 µM. It also gave a TGI (CCRF-CEM leukemia) of 10.8 µM, a GI50 (NCI-H460 lung) of 3.12 µM and a TGI (NCI-H460 lung) of 10.3 µM. It also gave a GI50 (NCI-H522 lung) of 2.44 µM, a TGI (NCI-H522 lung) of 7.29 µM and a GI50 (ACHN renal) of 4.52 µM. For the same molecule, the TGI (ACHN renal) was 17.2 µM, the GI50 (DU-145 prostate) was 3.78 µM and the TGI (DU-145 prostate) was 13.6 µM. The GI50 (MDA-MB-435) was 1.44 µM, the TGI (MDA-MB-435) was 5.12 µM and the GI50 (UACC-62 melanoma) was 4.43 µM. The TGI (UACC-62 melanoma) was 17 µM, the GI50 (COLO 205 colon) was 1.72 µM and the TGI (COLO 205 colon) was 3.52 µM. It also gave a GI50 (NCI-H23 lung) of 3.04 µM, a TGI (NCI-H23 lung) of 10.2 µM and a GI50 (SF-539 CNS) of 2.15 µM. The TGI (SF-539 CNS) was 4.27 µM, the GI50 (EKVX NSCLC) was 3.61 µM and the TGI (EKVX NSCLC) was 14.9 µM.
